Test results reported in the COVID Moonshot data (paper PMC7615835).
Where “and” joins values, the source holds several entries; their conditions need not be identical. Equal values may be shown once.

Key:
[1] = biological target: SARS-CoV-2 Main Protease (SARS-CoV-2) (UniProt P0DTD1)
[2] = biological target: PSP (Eurofins): hr ERalpha (Binding) (AC50) (UniProt P03372)
[3] = not given; remark: listed apart in the source
[4] = human; liver_microsomes
[5] = in vivo, iv, 0.5 mg/kg
[6] = rat; plasma
[7] = human; plasma
[8] = a549
[9] = pampa
[10] = helaace2
[11] = not given; remark: listed apart in the source
[12] = mouse; liver_microsomes
[13] = mouse; plasma

Chain of UniProt P03372 (P03372 whole entry, looked up): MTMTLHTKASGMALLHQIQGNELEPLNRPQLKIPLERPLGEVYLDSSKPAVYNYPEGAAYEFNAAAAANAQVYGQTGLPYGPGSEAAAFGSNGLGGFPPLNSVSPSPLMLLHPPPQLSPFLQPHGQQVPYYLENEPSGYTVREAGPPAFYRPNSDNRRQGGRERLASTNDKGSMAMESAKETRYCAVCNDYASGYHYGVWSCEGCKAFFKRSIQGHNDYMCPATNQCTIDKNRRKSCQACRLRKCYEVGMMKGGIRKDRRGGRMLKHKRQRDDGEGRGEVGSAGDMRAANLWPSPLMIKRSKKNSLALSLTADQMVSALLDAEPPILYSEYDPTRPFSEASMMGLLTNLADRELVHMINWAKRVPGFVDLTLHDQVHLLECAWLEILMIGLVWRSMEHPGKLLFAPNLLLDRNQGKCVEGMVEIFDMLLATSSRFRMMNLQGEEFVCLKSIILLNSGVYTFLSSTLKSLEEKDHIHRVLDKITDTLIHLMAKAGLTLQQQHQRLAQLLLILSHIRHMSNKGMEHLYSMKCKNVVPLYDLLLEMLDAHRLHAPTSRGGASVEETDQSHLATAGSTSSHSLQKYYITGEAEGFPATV

SMILES	logD	IC50 [1]	AUC(0-inf) ([5]; rat)	AUC(0-t) ([5]; rat)	C0 ([5]; rat)	MRT inf ([5]; rat)	MRT last ([5]; rat)	Vd ([5]; rat)	clearance ([5]; rat)	half-life ([5]; rat)	other results
COCCS(=O)(=O)N1Cc2ccc(Cl)cc2C(C(=O)Nc2cncc3ccccc23)C1 (centres undefined)	2.3	211 nM and 214 nM									
O=C(Nc1cncc2ccccc12)C1CN(S(=O)(=O)CC2CNC2)Cc2ccc(Cl)cc21 (centres undefined)	0.2		83.4 ng·h/mL and 86.5 ng·h/mL	76.9 ng·h/mL and 76.7 ng·h/mL	406 ng/mL and 381 ng/mL	67.2 min and 61.8 min	33.2 min and 32 min	5.86 L/kg and 6.06 L/kg	94.6 mL/min/kg and 91.2 mL/min/kg	91.2 min	AC50 [2]: 20400 nM; Fa ([3]; mdck): 30.7%; Papp A→B ([3]; mdck): 1.6 ×10⁻⁶ cm/s; recovery ([3]; mdck): 93%; Papp A→B ([3]; mdck_mdr1): 0.517 ×10⁻⁶ cm/s and 0.7 ×10⁻⁶ cm/s; Papp B→A ([3]; mdck_mdr1): 0.896 ×10⁻⁶ cm/s and 0.9 ×10⁻⁶ cm/s; microsomal CLint [4]: 10 µL/min/mg; fraction unbound [6]: 0.335; fraction unbound [7]: 0.295
CNC(=O)c1cc2c(NC(=O)C3CCOc4ccc(Cl)cc43)cncc2s1 (centres undefined)	3	571 nM	267 ng·h/mL and 298 ng·h/mL	263 ng·h/mL and 291 ng·h/mL	712 ng/mL and 752 ng/mL	55.4 min and 40.1 min	35.8 min and 39.7 min	1.45 L/kg and 1.85 L/kg	36.2 mL/min/kg and 32.6 mL/min/kg	39.1 min and 113 min	
CS(=O)(=O)c1ccc2cncc(NC(=O)C3CCNc4cc(Cl)c(Cl)cc43)c2c1 (centres undefined)	3.1	526 nM	285 ng·h/mL and 378 ng·h/mL and 178 ng·h/mL	282 ng·h/mL and 377 ng·h/mL and 175 ng·h/mL	741 ng/mL and 1320 ng/mL and 725 ng/mL	28.6 min and 41 min and 22.8 min	38 min and 27.8 min and 21 min	1.2 L/kg and 0.645 L/kg and 1.15 L/kg	29.2 mL/min/kg and 22.4 mL/min/kg and 50.2 mL/min/kg	38.9 min and 29.9 min and 21.2 min	CC50 [8]: > 9990 nM
O=C(Nc1cncc2cc(CO)ccc12)C1CCOc2ccc(Cl)cc21 (centres undefined)	2.2	1400 nM	187 ng·h/mL and 325 ng·h/mL	182 ng·h/mL and 321 ng·h/mL	518 ng/mL and 742 ng/mL	36.2 min and 29.3 min	26 min and 34 min	1.31 L/kg and 0.947 L/kg	44.6 mL/min/kg and 26.8 mL/min/kg	27.7 min	
C[C@@H]1C[C@@H](C(=O)Nc2cncc3ccccc23)c2cc(Cl)ccc2O1 (stereo in doubt)	3.4	231 nM									
COc1ccc(Cl)cc1OCCNC(=O)c1cc(=O)[nH]c2cccc(OC)c12		874 nM									Papp [9]: 109 ×10⁻⁶ cm/s
CN1CCN(S(=O)(=O)N2Cc3ccc(Cl)cc3C(C(=O)Nc3cncc4ccccc34)C2)CC1 (centres undefined)	2.1	116 nM	88 ng·h/mL and 85 ng·h/mL	84.3 ng·h/mL and 82.4 ng·h/mL	211 ng/mL and 112 ng/mL	56.3 min and 30.7 min	24.9 min and 47.2 min	1.6 L/kg and 3.12 L/kg	52.1 mL/min/kg and 55.5 mL/min/kg	29.6 min and 52.7 min	
COc1ccc(C[C@H](N)C(=O)N[C@H]2[C@@H](O)[C@H](n3cnc4c(N(C)C)ncnc43)O[C@@H]2CO)cc1 (stereo in doubt)											CC50 [10]: 325 nM and 831 nM and 504 nM
O=C(Nc1cncc2ccncc12)[C@H]1CCOc2ccc(Cl)cc21 (stereo in doubt)	2.6										logD [11]: 2.59 and 2.5; CC50 [8]: > 9990 nM; half-life [12]: 7.8 min; microsomal CLint [12]: 223 µL/min/mg; AUC(0-inf) ([5]; mouse): 113 ng·h/mL and 122 ng·h/mL; AUC(0-t) ([5]; mouse): 112 ng·h/mL and 118 ng·h/mL; C0 ([5]; mouse): 525 ng/mL and 604 ng/mL; MRT inf ([5]; mouse): 13.7 min and 14.6 min; MRT last ([5]; mouse): 13 min; Vd ([5]; mouse): 1.01 L/kg and 1 L/kg; clearance ([5]; mouse): 73.5 mL/min/kg and 68.7 mL/min/kg; half-life ([5]; mouse): 9.48 min and 11.9 min; fraction unbound [13]: 0.219; recovery [13]: 102%
C=CC(=O)N(C(=O)C1COc2ccc(Cl)cc21)c1cncc2ccccc12 (centres undefined)											Papp [9]: 435 ×10⁻⁶ cm/s
O=C(Nc1cncc2ccccc12)C1CN(S(=O)(=O)C2CNC2)Cc2ccc(Cl)cc21 (centres undefined)	1.4	274 nM									
